Laboratory results from patent US20230210999A1, “TARGETED PROTEASE DEGRADATION (TED) PLATFORM” (EUBULUS BIOTHERAPEUTICS INC., priority 2020, published 2023).
Where two headings read alike, the source gives them in different places.

Legend:
MV4;11 cells = experiment: Cell proliferation experiment (Alamar blue, 72 h), MV4;11; type: cell-based, human; details: Homo sapiens, MV4-11, 72 h, read-out: Inhibitory activity IC50 of tested compounds on MV4;11 cells
Summary of the method: (§1)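 Viability measured by Alamar blue fluorescence after 72 h culture with compound (5-fold serial dilutions, two wells each) added to log-phase cells. IC50 derived from a Min/Max/Slope logistic equation.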

U-87MG cells = experiment: Cell proliferation experiment, U-87MG; type: cell-based; details: Homo sapiens, 72 h, read-out: Inhibitory activity IC50 of tested compounds on U-87MG cells
Method: (§2) Reagents: RPMI-1640 medium, McCoy's 5A medium, IMDM medium, MEM medium, L-15 medium, fetal bovine serum. Penicillin-Streptomycin double antibody, trypsin, etc., 2-mercaptoethanol, NEAA, pyruvate, etc.
(§3) The cells were cultured in conventional ways, and the cells should be passed at least 2 generations before plating. Cells at the logarithmic growth phase were collected, prepared into single cell suspensions and counted. The concentration of cells was adjusted to the desired concentration, and cells were inoculated into a 96-well cell culture plate at 100 μl per well. 100 μL of complete medium of the test compound were added to each well, set up 2 duplicate wells for each concentration, and diluted with a 5-fold gradient, and continued to culture for 72 h. All cells were subjected to IC50 test for corresponding samples. The experimental results are shown in Test Example 4.
(§4) The fluorescence intensity of each well was detected using the Alarm blue method, and IC50 was calculated.
(§5) IC50 was calculated according to the following formula:
(§6) Y=Max+(Min−Max)/[1+(X/IC50)×Slope]
(§7) wherein Min, Max and Slope represent the minimum, maximum and slope respectively.

NCIH82 cells = experiment: Cell proliferation experiment, NCI-H82; type: cell-based, human; details: Homo sapiens, NCI-H82, 72 h, read-out: Inhibitory activity IC50 of tested compounds on NCIH82 cells
Summary of the method: as §1

HT-29 cells = experiment: Cell proliferation experiment, HT-29; type: cell-based; details: Homo sapiens, read-out: Inhibitory activity IC50 of tested compounds on HT-29 cells
Method: as §2, §3, §4, §5, §6, §7

Daudi cells = experiment: Cell proliferation experiment, Daudi; type: cell-based, human; details: Homo sapiens, Daudi, 72 h, 72 h, read-out: Inhibitory activity IC50 of tested compounds on Daudi cells
Summary of the method: as §1

Row | SMILES | IC50 (MV4;11 cells; MV4;11 cells, 72 h) [µM] | IC50 (U-87MG cells; U-87MG cells) [µM] | IC50 (NCIH82 cells; NCIH82 cells, 72 h) [µM] | IC50 (HT-29 cells; HT-29 cells, 72 h) [µM] | IC50 (Daudi cells; Daudi cells) [µM] | IC50 (MV4;11 cells) [µM] | IC50 (U-87MG cells; U-87 MG) [µM] | IC50 (NCIH82 cells) [µM] | IC50 (HT-29 cells; HT-29, 72 h) [µM] | IC50 (Daudi cells) [µM]
1 | CC[C@@H]1C(=O)N(C)c2cnc(Nc3ccc(C(=O)NCCCNCCOCCC#Cc4cccc5c4CN(C4CCC(=O)NC4=O)C5=O)cc3OC)nc2N1C1CCCC1 (some centres unmarked) [Compound 885] | ≤ 0.1 | 0.1 to 0.5 | > 1 | > 1 | 0.1 to 1 | – | – | – | – | –
2 | CC[C@@H]1C(=O)N(C)c2cnc(Nc3ccc(C(=O)NCCCOCCOCCCNCCC#Cc4cccc5c4CN(C4CCC(=O)NC4=O)C5=O)cc3OC)nc2N1C1CCCC1 (some centres unmarked) [Compound 882] | ≤ 0.1 | ≤ 0.1 | ≤ 1 | 0.3 to 1 | 0.1 to 1 | – | – | – | – | –
3 | CC[C@@H]1C(=O)N(C)c2cnc(Nc3ccc(C(=O)NC4CCN(CCOCCOC[C@@H](N)C(=O)Nc5cccc6c5CC(C5CCC(=O)NC5=O)C6=O)CC4)cc3OC)nc2N1C1CCCC1 (some centres unmarked) [Compound 872] | 0.1 to 1 | > 1 | ≤ 1 | > 1 | > 1 | – | – | – | – | –
4 | CC[C@@H]1C(=O)N(C)c2cnc(Nc3ccc(C(=O)NC4CCN(CCCOCCNCCCC#Cc5cccc6c5CN(C5CCC(=O)NC5=O)C6=O)CC4)cc3OC)nc2N1C1CCCC1 (some centres unmarked) [Compound 918] | ≤ 0.1 | 0.1 to 0.5 | ≤ 1 | 0.3 to 1 | ≤ 0.1 | – | – | – | – | –
5 | CC[C@@H]1C(=O)N(C)c2cnc(Nc3ccc(C(=O)NC4CCN(C[C@H](N)COCC#Cc5cccc6c5CN(C5CCC(=O)NC5=O)C6=O)CC4)cc3OC)nc2N1C1CCCC1 (some centres unmarked) [Compound 876] | ≤ 0.1 | 0.1 to 0.5 | > 1 | > 1 | 0.1 to 1 | – | – | – | – | –
6 | CC[C@@H]1C(=O)N(C)c2cnc(Nc3ccc(C(=O)NC4CCN(CCOCCN)CC4)cc3OC)nc2N1C1CCCC1 [Compound 866] | ≤ 0.1 | 0.1 to 0.5 | ≤ 1 | ≤ 0.3 | ≤ 0.1 | – | – | – | – | –
7 | CC[C@@H]1C(=O)N(C)c2cnc(Nc3ccc(C(=O)NC4CCN(CCCCN(C)CCC#Cc5cccc6c5CN(C5CCC(=O)NC5=O)C6=O)CC4)cc3OC)nc2N1C1CCCC1 (some centres unmarked) [Compound 910] | ≤ 0.1 | 0.1 to 0.5 | ≤ 1 | ≤ 0.3 | ≤ 0.1 | – | – | – | – | –
8 | CC[C@@H]1C(=O)N(C)c2cnc(Nc3ccc(C(=O)NCCCNCCOCCOCCC#Cc4cccc5c4CN(C4CCC(=O)NC4=O)C5=O)cc3OC)nc2N1C1CCCC1 (some centres unmarked) [Compound 898] | ≤ 0.1 | 0.1 to 0.5 | > 1 | > 1 | > 1 | – | – | – | – | –
9 | CC[C@@H]1C(=O)N(C)c2cnc(Nc3ccc(C(=O)NCCOCCOCCOCCNCC(=O)N[C@H](C(=O)N4C[C@H](O)C[C@H]4C(=O)NCc4ccc(-c5scnc5C)cc4)C(C)(C)C)cc3OC)nc2N1C1CCCC1 [Compound 854] | – | – | – | – | – | 0.1 to 1 | > 1 | > 1 | > 1 | > 1
10 | CC[C@@H]1C(=O)N(C)c2cnc(Nc3ccc(C(=O)NC4CCN(CCOCCNC5(C(=O)Nc6cccc7c6CN(C6CCC(=O)NC6=O)C7=O)CC5)CC4)cc3OC)nc2N1C1CCCC1 (some centres unmarked) [Compound 867] | ≤ 0.1 | 0.5 to 1 | ≤ 1 | 0.3 to 1 | ≤ 0.1 | – | – | – | – | –
11 | CC[C@@H]1C(=O)N(C)c2cnc(Nc3ccc(C(=O)NC4CCN(CCCOCCCNCCC#Cc5cccc6c5CN(C5CCC(=O)NC5=O)C6=O)CC4)cc3OC)nc2N1C1CCCC1 (some centres unmarked) [Compound 906] | ≤ 0.1 | 0.1 to 0.5 | ≤ 1 | 0.3 to 1 | 0.1 to 1 | – | – | – | – | –
12 | CC[C@@H]1C(=O)N(C)c2cnc(Nc3ccc(C(=O)NC4CCN(CCOCCCNCCC#Cc5cccc6c5CN(C5CCC(=O)NC5=O)C6=O)CC4)cc3OC)nc2N1C1CCCC1 (some centres unmarked) [Compound 908] | ≤ 0.1 | 0.1 to 0.5 | ≤ 1 | 0.3 to 1 | ≤ 0.1 | – | – | – | – | –
13 | CC[C@@H]1C(=O)N(C)c2cnc(Nc3ccc(C(=O)NC4CCN(CCCN(C)CCCOCCCC#Cc5cccc6c5CN(C5CCC(=O)NC5=O)C6=O)CC4)cc3OC)nc2N1C1CCCC1 (some centres unmarked) [Compound 911] | ≤ 0.1 | ≤ 0.1 | ≤ 1 | 0.3 to 1 | ≤ 0.1 | – | – | – | – | –
14 | CC[C@@H]1C(=O)N(C)c2cnc(Nc3ccc(C(=O)NC4CCN(CCO)CC4)cc3OC)nc2N1C1CCCC1 [Compound 865] | ≤ 0.1 | ≤ 0.1 | ≤ 1 | ≤ 0.3 | ≤ 0.1 | – | – | – | – | –
15 | CC[C@@H]1C(=O)N(C)c2cnc(Nc3ccc(C(=O)NC4CCN(CCNCCOCC(=O)N[C@H](C(=O)N5C[C@H](O)C[C@H]5C(=O)NCc5ccc(-c6scnc6C)cc5)C(C)(C)C)CC4)cc3OC)nc2N1C1CCCC1 [Compound 852] | > 1 | > 1 | > 1 | > 1 | > 1 | – | – | – | – | –
16 | CC[C@@H]1C(=O)N(C)c2cnc(Nc3ccc(C(=O)NCCOCCOCCOCCNCCC(=O)N[C@H](C(=O)N4C[C@H](O)C[C@H]4C(=O)NCc4ccc(-c5scnc5C)cc4)C(C)(C)C)cc3OC)nc2N1C1CCCC1 [Compound 850] | > 1 | > 1 | > 1 | > 1 | > 1 | – | – | – | – | –
17 | CC[C@@H]1C(=O)N(C)c2cnc(Nc3ccc(C(=O)NC4CCN(CCOCCNC5CN(c6cccc7c6C(=O)N(C6CCC(=O)NC6=O)C7=O)C5)CC4)cc3OC)nc2N1C1CCCC1 (some centres unmarked) [Compound 857] | ≤ 0.1 | 0.5 to 1 | ≤ 1 | > 1 | 0.1 to 1 | – | – | – | – | –
18 | CC[C@@H]1C(=O)N(C)c2cnc(Nc3ccc(C(=O)NC4CCN(CCCOCCCN(C)CCC#Cc5cccc6c5CN(C5CCC(=O)NC5=O)C6=O)CC4)cc3OC)nc2N1C1CCCC1 (some centres unmarked) [Compound 914] | ≤ 0.1 | 0.1 to 0.5 | ≤ 1 | ≤ 0.3 | ≤ 0.1 | – | – | – | – | –
19 | CC[C@@H]1C(=O)N(C)c2cnc(Nc3ccc(C(=O)NCCOCCNCC(=O)N[C@H](C(=O)N4C[C@H](O)C[C@H]4C(=O)NCc4ccc(-c5scnc5C)cc4)C(C)(C)C)cc3OC)nc2N1C1CCCC1 [Compound 851] | – | – | – | – | – | 0.1 to 1 | > 1 | > 1 | > 1 | > 1
